In the supplement of paper PMC6045584:
± gives the standard deviation of the averaged measurements.

How the values were obtained:
NUTLIN3 = compound: COc1ccc(C2=N[C@@H](c3ccc(Cl)cc3)[C@@H](c3ccc(Cl)cc3)N2C(=O)N2CCNC(=O)C2)c(OC(C)C)c1 [NUTLIN3]; test: surviving fraction relative to DMSO-only wells; higher = less growth inhibition; details: exposure time: 5 days
Method in brief: (§1)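 Log-phase tumour cells were seeded at 250–500 per well in 384-well plates and, from 24 hours after seeding, exposed continuously for five days to inhibitors at 0.5, 1, 5, 10, 50, 100, 500 and 1000 nM. Surviving fraction is CellTiter-Glo luminescence normalised to the median of DMSO-only wells. Luminescence was measured after 10 minutes at room temperature, and only lines screened three times with replicate Pearson r >0.7 and median Z' >0.3 were kept.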

RESVERATROL = compound: Oc1ccc(/C=C/c2cc(O)cc(O)c2)cc1 [RESVERATROL]; test: as above; details: exposure time: 5 days
Method in brief: as §1

Row | Test System | surviving fraction (NUTLIN3; 0.5 nM) | surviving fraction (NUTLIN3; 1 nM) | surviving fraction (NUTLIN3; 5 nM) | surviving fraction (NUTLIN3; 10 nM) | surviving fraction (NUTLIN3; 50 nM) | surviving fraction (NUTLIN3; 100 nM) | surviving fraction (NUTLIN3; 500 nM) | surviving fraction (NUTLIN3; 1000 nM) | surviving fraction (RESVERATROL; 0.5 nM) | surviving fraction (RESVERATROL; 1 nM) | surviving fraction (RESVERATROL; 5 nM) | surviving fraction (RESVERATROL; 10 nM) | surviving fraction (RESVERATROL; 50 nM) | surviving fraction (RESVERATROL; 100 nM) | surviving fraction (RESVERATROL; 500 nM) | surviving fraction (RESVERATROL; 1000 nM)
1 | PCI30 HEADNECK | 1.01 ± 0.034 | 0.93 ± 0.019 | 1.04 ± 0.026 | 1.06 ± 0.064 | 1.14 ± 0.062 | 1.09 ± 0.05 | 1.02 ± 0.041 | 1.04 ± 0.092 | 1 ± 0.031 | 1.02 ± 0.058 | 1.04 ± 0.03 | 1.1 ± 0.08 | 1.05 ± 0.031 | 1.13 ± 0.045 | 1.07 ± 0.082 | 1.16 ± 0.015
2 | RDES SOFT TISSUE | 1.25 ± 0.074 | 1.32 ± 0.076 | 1.07 ± 0.044 | 1.18 ± 0.14 | 1.17 ± 0.13 | 1 ± 0.17 | 1.4 ± 0.22 | 1.25 ± 0.17 | 1.25 ± 0.14 | 1.25 ± 0.05 | 1.29 ± 0.042 | 1.32 ± 0.054 | 1.37 ± 0.13 | 1.35 ± 0.24 | 1.68 ± 0.053 | 1.67 ± 0.12
3 | S68 BREAST | 0.854 ± 0.16 | 0.785 ± 0.32 | 0.92 ± 0.03 | 0.976 ± 0.16 | 1.28 ± 0.18 | 0.99 ± 0.07 | 0.936 ± 0.25 | 1.01 ± 0.22 | 0.829 ± 0.095 | 0.815 ± 0.21 | 0.993 ± 0.36 | 0.818 ± 0.095 | 1.14 ± 0.17 | 1 ± 0.059 | 1.1 ± 0.12 | 0.878 ± 0.066
4 | SAOS2 BONE | 1.16 ± 0.028 | 0.981 ± 0.037 | 1.13 ± 0.043 | 1.09 ± 0.048 | 1.15 ± 0.017 | 1.2 ± 0.029 | 1.12 ± 0.033 | 1.043 ± 0.0023 | 1.16 ± 0.15 | 1.24 ± 0.047 | 1.24 ± 0.091 | 1.23 ± 0.061 | 1.26 ± 0.11 | 1.22 ± 0.089 | 1.24 ± 0.084 | 1.18 ± 0.072
5 | SCC003 HEADNECK | 1.05 ± 0.12 | 1.01 ± 0.081 | 1.03 ± 0.12 | 1 ± 0.088 | 1.06 ± 0.062 | 1.12 ± 0.07 | 1.09 ± 0.089 | 1.07 ± 0.13 | 1.05 ± 0.056 | 1.06 ± 0.15 | 1.14 ± 0.012 | 1.12 ± 0.058 | 1.06 ± 0.084 | 1.1 ± 0.064 | 1.09 ± 0.017 | 1.15 ± 0.075
6 | SCC36 HEADNECK | 1.07 ± 0.15 | 1.04 ± 0.087 | 1.16 ± 0.014 | 1.04 ± 0.03 | 1.19 ± 0.069 | 1.17 ± 0.044 | 1.04 ± 0.1 | 1.1 ± 0.051 | 1.13 ± 0.082 | 1.14 ± 0.11 | 1.22 ± 0.044 | 1.19 ± 0.045 | 1.25 ± 0.07 | 1.25 ± 0.03 | 1.05 ± 0.099 | 1.16 ± 0.16
7 | SCC47 HEADNECK | 1.08 ± 0.082 | 1.03 ± 0.023 | 1.14 ± 0.026 | 1.135 ± 0.0096 | 1.13 ± 0.051 | 1.16 ± 0.088 | 1.07 ± 0.052 | 1.14 ± 0.099 | 1.09 ± 0.13 | 1.11 ± 0.096 | 1.09 ± 0.066 | 1.21 ± 0.038 | 1.21 ± 0.072 | 1.17 ± 0.051 | 1.09 ± 0.023 | 1.2 ± 0.057
8 | SCC90 HEADNECK | 1.05 ± 0.051 | 1.04 ± 0.22 | 1.13 ± 0.15 | 1.11 ± 0.23 | 1.12 ± 0.12 | 1.02 ± 0.026 | 0.997 ± 0.098 | 1.04 ± 0.098 | 1.01 ± 0.012 | 1.045 ± 0.0079 | 1.12 ± 0.15 | 1.08 ± 0.021 | 1.03 ± 0.061 | 1.05 ± 0.064 | 1.05 ± 0.019 | 0.956 ± 0.076
9 | SG27 HEADNECK | 1.01 ± 0.02 | 1.06 ± 0.12 | 0.998 ± 0.17 | 1.19 ± 0.19 | 0.998 ± 0.064 | 1 ± 0.062 | 0.788 ± 0.11 | 0.668 ± 0.06 | 1.15 ± 0.14 | 1.02 ± 0.069 | 1.03 ± 0.067 | 1.06 ± 0.1 | 1.04 ± 0.083 | 1.17 ± 0.059 | 1.15 ± 0.085 | 1.08 ± 0.12
10 | SG28 HEADNECK | 1.13 ± 0.065 | 1.03 ± 0.14 | 1.02 ± 0.12 | 1.07 ± 0.12 | 1.03 ± 0.14 | 1.02 ± 0.085 | 1.01 ± 0.11 | 0.919 ± 0.1 | 1.03 ± 0.12 | 1.07 ± 0.1 | 1.15 ± 0.11 | 1 ± 0.057 | 1.01 ± 0.005 | 1 ± 0.051 | 1.06 ± 0.053 | 1.03 ± 0.2
11 | SG31 HEADNECK | 1.08 ± 0.067 | 1.05 ± 0.2 | 1.06 ± 0.12 | 0.921 ± 0.035 | 0.854 ± 0.13 | 1.11 ± 0.23 | 0.906 ± 0.038 | 0.92 ± 0.057 | 1.1 ± 0.23 | 1.23 ± 0.18 | 1.03 ± 0.095 | 1.13 ± 0.095 | 1.05 ± 0.15 | 0.975 ± 0.19 | 1.13 ± 0.18 | 1.42 ± 0.32
12 | SG32 HEADNECK | 1.27 ± 0.11 | 1.14 ± 0.29 | 1 ± 0.13 | 1.12 ± 0.095 | 1.18 ± 0.035 | 1.31 ± 0.45 | 0.895 ± 0.29 | 0.61 ± 0.07 | 1.02 ± 0.14 | 0.975 ± 0.06 | 1.16 ± 0.25 | 0.989 ± 0.051 | 0.999 ± 0.018 | 1.05 ± 0.092 | 0.989 ± 0.2 | 1.01 ± 0.11
13 | SG43 HEADNECK | 1.11 ± 0.1 | 0.915 ± 0.071 | 0.928 ± 0.11 | 0.772 ± 0.064 | 0.877 ± 0.14 | 0.778 ± 0.24 | 0.806 ± 0.24 | 0.565 ± 0.1 | 0.856 ± 0.14 | 1.06 ± 0.048 | 0.867 ± 0.23 | 0.914 ± 0.025 | 0.822 ± 0.13 | 0.794 ± 0.19 | 0.848 ± 0.14 | 0.898 ± 0.22
14 | SIHA CERVIX | 1.05 ± 0.062 | 0.991 ± 0.053 | 1.01 ± 0.12 | 1.07 ± 0.071 | 1.05 ± 0.073 | 1.2 ± 0.05 | 1.11 ± 0.15 | 1.14 ± 0.11 | 1.02 ± 0.034 | 1.05 ± 0.041 | 1.116 ± 0.011 | 1.14 ± 0.066 | 1.07 ± 0.072 | 1.09 ± 0.045 | 1.09 ± 0.066 | 1.15 ± 0.02
15 | SJSA1 BONE | 1 ± 0.048 | 0.997 ± 0.041 | 1.05 ± 0.053 | 1 ± 0.064 | 1.03 ± 0.023 | 1.04 ± 0.02 | 0.823 ± 0.011 | 0.568 ± 0.027 | 1.62 ± 0.083 | 1.74 ± 0.059 | 1.65 ± 0.053 | 1.79 ± 0.04 | 1.67 ± 0.13 | 1.74 ± 0.092 | 1.61 ± 0.13 | 1.78 ± 0.078
16 | SKBR3 BREAST | 0.795 ± 0.15 | 1.01 ± 0.2 | 0.869 ± 0.1 | 0.844 ± 0.18 | 0.952 ± 0.14 | 0.8987 ± 0.0035 | 0.91 ± 0.029 | 0.885 ± 0.077 | 0.966 ± 0.15 | 1.06 ± 0.048 | 1.1 ± 0.1 | 1.07 ± 0.076 | 1.08 ± 0.053 | 1.09 ± 0.028 | 1.11 ± 0.12 | 1.04 ± 0.055
17 | SNU475 LIVER | 1.02 ± 0.066 | 0.981 ± 0.017 | 0.988 ± 0.045 | 0.984 ± 0.032 | 1 ± 0.028 | 1.03 ± 0.071 | 1.021 ± 0.009 | 1 ± 0.02 | 0.98 ± 0.043 | 1.04 ± 0.029 | 1.02 ± 0.06 | 0.988 ± 0.029 | 0.9453 ± 0.006 | 1.01 ± 0.014 | 0.99 ± 0.035 | 1.04 ± 0.017
18 | SUM44 BREAST | 0.96 ± 0.028 | 0.915 ± 0.056 | 1.02 ± 0.03 | 1.04 ± 0.051 | 1.09 ± 0.055 | 1.06 ± 0.017 | 1.07 ± 0.084 | 0.964 ± 0.063 | 1.1 ± 0.1 | 1.18 ± 0.28 | 1.19 ± 0.27 | 1.25 ± 0.36 | 1.1 ± 0.17 | 1.21 ± 0.26 | 1.2 ± 0.3 | 1.31 ± 0.41
19 | SUM149 BREAST | 1.03 ± 0.098 | 1.12 ± 0.052 | 1.18 ± 0.053 | 1.15 ± 0.085 | 1.08 ± 0.075 | 1.13 ± 0.11 | 1.04 ± 0.047 | 1.01 ± 0.092 | 0.958 ± 0.048 | 1.02 ± 0.07 | 1.04 ± 0.082 | 0.958 ± 0.013 | 1.07 ± 0.048 | 0.989 ± 0.062 | 1.09 ± 0.034 | 1.09 ± 0.1
20 | SUM149.B1*.S BREAST | 1.03 ± 0.045 | 1.07 ± 0.0015 | 1.05 ± 0.011 | 1.07 ± 0.022 | 1.13 ± 0.037 | 1.12 ± 0.017 | 1.14 ± 0.024 | 1.11 ± 0.04 | 1.05 ± 0.056 | 1.09 ± 0.041 | 1.08 ± 0.051 | 1.1 ± 0.061 | 1.02 ± 0.036 | 1.128 ± 0.0016 | 1.09 ± 0.043 | 1.14 ± 0.026
21 | SUM159 BREAST | 1.07 ± 0.059 | 1.05 ± 0.04 | 0.982 ± 0.076 | 0.991 ± 0.041 | 1.03 ± 0.027 | 0.998 ± 0.08 | 0.946 ± 0.17 | 0.916 ± 0.25 | 1.04 ± 0.028 | 1.1 ± 0.024 | 1.06 ± 0.03 | 1.06 ± 0.021 | 1.033 ± 0.0053 | 1.07 ± 0.016 | 1.08 ± 0.018 | 1.11 ± 0.017
